According to patent US9739765B2, “Metal-based covalent viability reagent for single cell analysis” (The Board of Trustees of the Leland Stanford Junior …, priority 2013, dated 2017):

Key:
KG-1 cells = experiment: Cisplatin viability labeling of partially heat-killed KG-1 cells, mass cytometry; format: cell-based, human; conditions: KG-1 cells spiked with approximately 30% heat-killed cells; 1 min cisplatin at 10, 50, or 250 μM (all doses)
Method: Generation of non-viable control cells. To generate samples with known amounts of non-viable cells, an aliquot of cultured cells was heat-killed at 55° C. for 1 hour, cooled to 37° C. and then spiked into each culture of viable cells at known percentages based on Trypan blue exclusion staining. Samples were then prepared for fluorescence and mass cytometry and the live/dead ratio of cells determined by each technology.
Cisplatin exposure. Cisplatin (WR International, Radnor, Pa., Cat #89150-634) was stored at −80° C. as a stock solution of 100 mM in DMSO (Hybrimax, Sigma Aldrich, St Louis, Mo.). Working solutions (10 mM) were prepared fresh on the day of each experiment by diluting the stock solution into PBS at 4° C. […]
(§1) Mass cytometry measurement. Cells were analyzed on a CyTOF® mass cytometer (DVS Sciences, Richmond Hill, Ontario, Canada). […] Cells were measured at approximately 500 cells per second, noise reduction was activated and cell extraction parameters were set to: Cell length, range was set from 10 to 65 pushes, and the lower convolution threshold was set to 10.
Comparison between fluorescence and mass cytometry protocols. […] In the first experiment a suspension of human myeloid KG-1 cells spiked with approximately 30% of heat-killed KG-1 cells (determined by Trypan blue extrusion), was tested with Aqua and cisplatin. […]

[1] = system: Jurkat, KG-1, HeLa, OVCAR3 cell lines; experiment: Cisplatin viability labeling of suspension and adherent cell lines spiked with heat-killed cells, mass cytometry; format: cell-based
Method: Cell culture. The cancer cell lines Jurkat (T acute lymphoblastic leukemia suspension cells) and OVCAR-3 (ovarian carcinoma adherent cells) were cultured in RPMI-1640 (GIBCO, Invitrogen, Carlsbad, Calif.) with 10% heat-inactivated fetal bovine serum (FBS), 2 mM L-glutamine and 100 U/ml penicillin. The suspension cell lines KG-1 (acute myeloid leukemia) and HL-60 (acute myeloid leukemia cells) were cultured in IMDM (GIBCO, Invitrogen, Carlsbad, Calif.) with 20% heat-inactivated FBS and 100 U/ml penicillin. The adherent cell line HeLa (cervical carcinoma) was cultured in DMEM (GIBCO, Invitrogen, Carlsbad, Calif.) with 10% heat-inactivated FBS and 100 U/ml penicillin. All cell lines were maintained at 37° C. in a humidified 5.0% CO2 environment. Peripheral blood from healthy donors was purchased from the Stanford Blood Bank according to an IRB-approved protocol. […] Samples were then prepared for fluorescence and mass cytometry and the live/dead ratio of cells determined by each technology. […] Cells were analyzed on a CyTOF® mass cytometer (DVS Sciences, Richmond Hill, Ontario, Canada). […] Cells were measured at approximately 500 cells per second, noise reduction was activated and cell extraction parameters were set to: Cell length, range was set from 10 to 65 pushes, and the lower convolution threshold was set to 10. […]

[2] = system: phosphorylation of SLP-76 (Y128) and SLP-65 in PBMCs; experiment: Pervanadate stimulation of cisplatin-labeled PBMCs, pSLP-76/65 signaling; format: cell-based; conditions: myeloid cells, T cells and B cells of PBMCs; 125 μM, 15 min
Method: Pervanadate stimulation of PBMCs. Frozen PBMCs were thawed at 37° C. and resuspended in RPMI-1640/10% FBS/2 mM EDTA. A fraction of the PBMCs (30%) was heat-killed separately and spiked back in, as described above. Cells were treated with cisplatin according to the standard protocol described above, at 10^6 cells/ml. Samples were then treated with activated sodium orthovanadate at a final concentration of 125 μM for 15 min at 37° C. Cells were fixed with 1.6% (final concentration) PFA for 10 min at room temperature.
Antibody staining. […]
as §1
Cisplatin as a viability indicator for primary samples. […] Therefore to evaluate signaling in PBMCs, phosphorylation of SLP-76 (Y128) (T cells and myeloid cells) and SLP-65 (Y76) (B cells) was determined after a […] exposure to vanadate, a global tyrosine phosphatase inhibitor, shown to increase intracellular kinase activity and phosphotyrosine levels.

Row | Compound | frequency of cisplatin positive (dead) cells (KG-1 cells) | signal-to-noise ratios separating live and dead cells ([1]; 1-minute pulse protocol, routinely observed (FIG. 2-5)) | signal-to-noise ratios, cisplatin-high (dead) vs cisplatin-low (live) populations ([1]; each cisplatin concentration (10, 50, 250 μM), HeLa, OVCAR3, Jurkat, KG-1) | SLP-76/65 phosphorylation in response to pervanadate, cisplatin-high populations [2] | SLP-76/65 phosphorylation in response to pervanadate, cisplatin-low populations [2]
1 | N.N.[Cl][Pt][Cl] [cisplatin, Cisplatin [Pt(NH3)2Cl]] | 26-28% | greater than 10 fold | above 10 | – | –
2 | activated sodium orthovanadate [pervanadate] | – | – | – | no response | strong increase
